Measurements: patent US20230381142A1, “ANTILEISHMANIAL COMPOUNDS, COMPOSITIONS AND USE THEREOF” (TRUSTEES OF BOSTON UNIVERSITY, priority 2022, published 2023)
Like-named read-outs stand apart in the source and are kept apart here.

How the values were obtained:
[1] = system: host THP-1 macrophages; experiment: GSK inMac assay, host cell toxicity readout (LD MAC); assay type: cell-based, human; conditions: for THP-1 Host Cell CC50: host THP-1 cells
Procedure, shortened: (§1)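 MAC EC50 reflects THP-1 host cell counts, measured within GSK's inMac L. donovani infection assay that also scores intracellular amastigotes and infected-cell percentage.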

[2] = system: L. donovani intracellular amastigotes in B10R cells; experiment: UCSD L. donovani infection assay (Assay Conditions D); assay type: cell-based; conditions: B10R cells; for L. donovani amastigotes EC75 (B10R cells): footnote d; for EC50: Leishmania donovani, values marked d, read-out: L. donovani amastigotes EC50 (B10R cells)
Method: (§2) Assay Conditions D: B10R cells (CVCL_0155) were seeded at 300 cells/well, and L. donovani WT promastigotes in stationary phase (7th day after passage) were added at 6,000 parasites/well (ratio of 20 parasites/cell). Both cells and parasites were seeded in DMEM High-Glucose medium (Gibco, cat. no. 11995065) containing 5% Fetal Bovine Serum (Sigma-Aldrich, cat. no. F2442) and 1% Penicillin-Streptomycin (Gibco, cat. no. 15140122). Cells and parasites were incubated in the presence of the compounds for 72 h at 37° C. and 5% C02. Plates were then fixed with 4% formaldehyde solution for at least 1 h, then washed with 1×PBS and stained with 5 μg/mL DAPI. Plates were read using an ImageXpress microscope (Molecular Devices) and analyzed by MetaXpress software (Molecular Devices) using a custom module optimized for this assay. […] Compounds were tested in a 10-point 2-fold serial dilution in 3 technical replicates, and 2 biological replicates. After 72 h, plates were fixed and stained with DAPI as described above. Images were acquired on an ImageXpress microscope, and analyzed using the MetaXpress custom module.
as §2, with “Compounds were obtained as 0.2 μmoles of dried film for primary single point screening. Each compound was diluted in DMSO to 10 μM final testing concentration. These compounds were tested in 2 biological replicates. The compounds were pre-spotted onto 384-well assay plates in single concentration.” for “Assay Conditions D:”, “CO2.” for “C02.”, “module. The DRCs were plotted, half-effective concentration (EC50) and half-cytotoxic concentration (CC50) were calculated using GraphPad Prism Software, version 6.05 (GraphPad Software, San Diego, CA).” for “module.”

[3] = system: L. donovani intracellular amastigotes infecting THP-1 macrophages; experiment: GSK intramacrophage L. donovani assay (LD AMMAC, inMac; Assay Conditions C); assay type: cell-based; conditions: Leishmania donovani
Procedure, shortened: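 EC50 values come from counting amastigotes per infected THP-1 macrophage (AMMAC). Parallel read-outs give percentage of infected cells per well (INFCELL) and a macrophage-number toxicity EC50 (MAC).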

[4] = GSK inMac assay, host cell toxicity readout (LD MAC); assay type: cell-based, human; conditions: human
Procedure, shortened: as §1

[5] = Property forecast index (PFI = ChromLogD7.4 + aromatic rings); assay type: physicochemical
Method: At the outset of the project, compound 1 was evaluated against GSK's established criteria for antileishmanial compound advancement (Table 2). Some of these assessments were performed on racemic 1, while chiral separation was also pursued of the 1 racemate to determine the active enantiomer. […] Based on this promising profile, it progressed into medicinal chemistry optimization to better understand structure-activity relationships (SAR) toward improved potency, as well as structure-property relationships (SPR) with an eye toward reducing PFI and plasma protein binding.

[6] = THP-1 cells, values marked c, read-out: L. donovani amastigotes EC50 (THP-1 cells)
[7] = footnote c, read-out: THP-1 Host Cell CC50
[8] = values marked c: THP-1 cells, read-out: L. donovani amastigotes EC50 (μM, THP-1 or B10R cells)

Compound	EC50 [3, 6] [µM]	CC50 [4, 7] [µM]	also measured
CCn1cc(N2C(=O)c3[nH]nc(CC(C)C)c3C2c2ccccc2C(F)(F)F)cn1 (stereo not shown) [BUCMD00671]			THP-1 Host Cell CC50 [1]: >10 µM; L. donovani amastigotes EC75 (μM, B10R cells) [2]: >5 µM
CC(C)Cc1n[nH]c2c1C(c1ccc(F)c(F)c1)N(c1cncc(F)c1)C2=O (stereo not shown) [BUCMD00701]			THP-1 Host Cell CC50 [1]: >10 µM; L. donovani amastigotes EC75 (μM, B10R cells) [2]: >5 µM
CC(C)Cc1n[nH]c2c1C(c1ccc(F)cc1)N(c1ccc3ncnn3c1)C2=O (stereo not shown) [CMLD010888]	5	> 50	L. donovani amastigotes EC75 (B10R cells) [2]: 2.3 µM
CC(C)Cc1n[nH]c2c1C(c1ccccc1Cl)N(c1ccc3ncnn3c1)C2=O (stereo not shown) [CMLD010921]		> 20	L. donovani amastigotes EC75 (B10R cells) [2]: 0.6 µM; EC50 [2]: 0.6 µM
C#CCn1nc2c(c1CC(C)C)C(c1ccc(F)cc1)N(c1ccc(OC)cc1)C2=O (stereo not shown) [CMLD010986]			EC50 [3, 8]: 3.2 µM; CC50 ([4]; host THP-1 cells): 25.1 µM; L. donovani amastigotes EC75 (μM, B10R cells) [2]: >10 µM
C#CCn1nc(CC(C)C)c2c1C(=O)N(c1ccc(OC)cc1)C2c1ccc(F)cc1 (stereo not shown) [CMLD010987]	1.6	20	L. donovani amastigotes EC75 (B10R cells) [2]: 4.0 µM
CC(C)Cc1n[nH]c2c1C(c1ccc(F)cc1)N(CCN1CCCC1)C2=O (stereo not shown) [CMLD011072]	15.9	> 50	L. donovani amastigotes EC75 (B10R cells) [2]: >10 µM
CC(C)Cc1n[nH]c2c1C(c1ccsc1)N(c1ccc3c(c1)OCO3)C2=O (stereo not shown) [CMLD011136]			EC50 [3, 8]: 5 µM; CC50 ([4]; host THP-1 cells): ≥ 50.1 µM; L. donovani amastigotes EC75 (μM, B10R cells) [2]: 3.6 µM
COc1ccccc1N1C(=O)c2[nH]nc(CC(C)C)c2C1c1ccsc1 (stereo not shown) [CMLD011138]	7.9	15.8	
COc1cccc(N2C(=O)c3[nH]nc(CC(C)C)c3C2c2cccc(C(F)(F)F)c2)c1 (stereo not shown) [CMLD011140]	5	20	
COc1ccccc1N1C(=O)c2[nH]nc(CC(C)C)c2C1c1cccc(C(F)(F)F)c1 (stereo not shown) [CMLD011141]	7.9	20	
COc1ccc(N2C(=O)c3[nH]nc(CC(C)C)c3C2c2ccncc2)cc1 (stereo not shown) [CMLD011142]	> 50	> 50	
CC(C)Cc1n[nH]c2c1C(c1ccc(F)cc1)N(c1ccc(S(N)(=O)=O)cc1)C2=O (stereo not shown) [CMLD011495]	> 100	20	
COc1ccc(N2C(=O)c3[nH]nc(CC(C)C)c3C2c2ccncc2Cl)cc1 (stereo not shown) [CMLD011496]	10	20	
CC(C)Cc1n[nH]c2c1C(c1ccc(F)cc1)N(c1ccccc1N(C)C)C2=O (stereo not shown) [CMLD011499]	3.2	10	
COc1ccccc1C1c2c(CC(C)C)n[nH]c2C(=O)N1c1ccc2c(c1)OCO2 (stereo not shown) [CMLD011546]		> 20	L. donovani amastigotes EC75 (B10R cells) [2]: 0.3 µM; EC50 [2]: 0.3 µM
CC(C)Cc1n[nH]c2c1C(c1c(Cl)cccc1Cl)N(c1ccc3c(c1)OCO3)C2=O (stereo not shown) [CMLD011547]	2.5	20	
CC(C)Cc1n[nH]c2c1C(c1c(Cl)cccc1Cl)N(c1ccc(Br)cc1)C2=O (stereo not shown) [CMLD011550]	7.9	20	

Compound	EC50 [3, 6] [µM]	CC50 [4, 7] [µM]	also measured
COc1ncc(N2C(=O)c3[nH]nc(CC(C)C)c3C2c2ccc(F)cc2)cc1C (stereo not shown) [CMLD011555]			EC50 [3, 8]: 10 µM; CC50 ([4]; host THP-1 cells): 20 µM; L. donovani amastigotes EC75 (μM, B10R cells) [2]: 1.7 µM
CC(C)Cc1n[nH]c2c1C(c1ccc(F)cc1)N(c1ccc3[nH]c(O)nc3c1)C2=O (stereo not shown) [CMLD011556]	> 100	20	
CC(C)Cc1n[nH]c2c1C(c1ccc(F)cc1)N(c1ccc3[nH]cnc3c1)C2=O (stereo not shown) [CMLD011557]	> 100	20	
CC(C)Cc1n[nH]c2c1C(c1ccc(F)cc1)N(c1ccc(S(=O)(=O)N3CCCC3)cc1)C2=O (stereo not shown) [CMLD011558]	> 100	20	
COc1ccc(N2C(=O)c3[nH]nc(CC(C)C)c3C2c2cccnc2Cl)cc1 (stereo not shown) [CMLD011559]	> 100	20	
CC(C)Cc1n[nH]c2c1C(c1ccc(F)cc1)N(c1ccc(N3CCCC3=O)cc1)C2=O (stereo not shown) [CMLD011560]			EC50 [3, 8]: 4 µM; CC50 ([4]; host THP-1 cells): 20 µM; L. donovani amastigotes EC75 (μM, B10R cells) [2]: 1.0 µM
COc1ccc(N2C(=O)c3[nH]nc(CC(C)C)c3C2c2c(Cl)cccc2Cl)cc1F (stereo not shown) [CMLD011568]	6.3	20	
COc1ccc(N2C(=O)c3[nH]nc(CC(C)C)c3C2c2c(Cl)cccc2Cl)cn1 (stereo not shown) [CMLD011569]	5	20	
COc1ccc(N2C(=O)c3[nH]nc(CC(C)C)c3C2c2ccc(F)cc2OC)cc1F (stereo not shown) [CMLD011573]	0.5	7.9	
COc1ccc(N2C(=O)c3[nH]nc(CC(C)C)c3C2c2ncccc2Cl)cc1 (stereo not shown) [CMLD011575]	10	20	
COc1ccc(N2C(=O)c3[nH]nc(CC(C)C)c3C2c2cccnc2OC)cc1 (stereo not shown) [CMLD0011576]	25.1	10	
COc1ccc(N2C(=O)c3[nH]nc(CC(C)C)c3C2c2cnccc2OC)cc1 (stereo not shown) [CMLD011577]	10	20	
COc1ccc(N2C(=O)c3[nH]nc(CC(C)C)c3C2c2ncccc2OC)cc1 (stereo not shown) [CMLD011578]	> 100	20	
COc1ccc(N2C(=O)c3[nH]nc(CC(C)C)c3C2c2cnccc2Cl)cc1 (stereo not shown) [CMLD011579]	> 100	20	
COc1ccc(N2C(=O)c3[nH]nc(CC(C)C)c3C2c2ccccc2Br)cn1 (stereo not shown) [CMLD012218]		> 20	L. donovani amastigotes EC75 (B10R cells) [2]: 0.4 µM; EC50 [2]: 1 µM
COc1ccc(N2C(=O)c3[nH]nc(CC(C)C)c3C2c2ccc(F)c(F)c2)cc1 (stereo not shown) [CMLD013640]	5	25.1	
CCCCc1n[nH]c2c1C(c1ccc(F)cc1)N(c1ccc(OC)cc1)C2=O (stereo not shown) [Compound 11]			EC50 ([3]; THP-1, read-out: potency (antileishmanial, text to Table 3)): ~0.3 µM; EC50 ([3]; growth inhibition of L. donovani intracellular amastigotes infecting THP-1 macrophages, read-out: LD AMMAC EC50): 0.1 µM; EC50 ([1]; Homo sapiens, THP-1, cytotoxicity against host THP-1 macrophages): 2.5 µM; PFI [5]: 8.4
